Measured values from patent publication US20260183407A1, “DYRK/CLK PROTACS AND USES THEREOF” (Arizona Board of Regents on Behalf of the University of …, priority 2022, published 2026).

Experiments:
DYRK1B [1] = target: T1, DYRK1B (Homo sapiens, UniProt Q9Y463); assay: HiBiT split luciferase assay of targeted degradation of DYRK1B in Flp-In T-REx 293 cells; assay type: cell-based; conditions: 300 nM compound, 24 h, HiBiT-tagged DYRK1B in Flp-In T-REx 293 cells, normalized to vehicle; read-out: Relative Degradation at 300 nM DYRK1B
T1 construct: purchased Eurofins; host or cells: E. coli BL21-derived (T7 phage display) or HEK-293
T1 sequence (Q9Y463 whole entry, species assumed): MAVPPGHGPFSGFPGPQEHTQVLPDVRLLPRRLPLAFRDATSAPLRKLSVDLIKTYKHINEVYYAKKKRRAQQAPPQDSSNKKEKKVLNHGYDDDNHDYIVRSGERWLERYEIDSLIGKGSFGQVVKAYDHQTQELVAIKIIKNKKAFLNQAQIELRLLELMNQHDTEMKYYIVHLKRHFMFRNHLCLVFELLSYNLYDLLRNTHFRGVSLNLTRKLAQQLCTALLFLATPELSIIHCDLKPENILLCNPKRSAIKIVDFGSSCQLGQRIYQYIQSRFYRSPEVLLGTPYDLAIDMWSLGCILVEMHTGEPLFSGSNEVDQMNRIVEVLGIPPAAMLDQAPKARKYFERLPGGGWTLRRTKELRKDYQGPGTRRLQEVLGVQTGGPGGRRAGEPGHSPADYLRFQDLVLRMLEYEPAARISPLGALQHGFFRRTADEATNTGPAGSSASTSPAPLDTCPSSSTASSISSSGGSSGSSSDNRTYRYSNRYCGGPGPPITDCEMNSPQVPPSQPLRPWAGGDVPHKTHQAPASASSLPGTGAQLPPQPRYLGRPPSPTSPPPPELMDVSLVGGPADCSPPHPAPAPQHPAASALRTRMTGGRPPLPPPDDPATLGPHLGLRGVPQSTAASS
From the text: The Flp-In T-REx 293 Cell Line and the pcDNA5/FRT/TO vector (Invitrogen) were used to generate stable cell clones for tetracyclin-inducible expression of DYRK1A and DYRK1B. These cells contain a single stably integrated Flp recognition target (FRT) site, which allows for site-specific integration of the expression cassette by the Flp (Flippase) recombinase. DYRK1 constructs were designed to contain a C-terminal HiBiT tag for quantitative detection of HiBiT-tagged proteins in cellular lysates with the help a split luciferase assay (Nano-Glo HiBiT Lytic Detection System, Promega). To monitor the targeted degradation of DYRK1A or DYRK1B, cells were seeded in 96-well plates (10,000 cells/per well) and treated with doxycyclineinal concentration 2 μg/ml) to induce DYRK1 expression. Compounds with presumed PROTAC activity were administered 24 h after seeding. After further incubation for 24 h, cells were grossly and microscopically inspected for overt toxicity. Cells were lysed in 100 μL ice-cold passive lysis buffer (PLB, Promega) by orbital shaking (30 min on ice) before lysates were centrifuged in PCR tube (20 min 20,000 g, RT). A 10 μl aliquot of the supernatant was subjected to the HiBiT lytic assay. Luminescence was quantified in an Orion Microplate luminometer (Berthold Detection System, Germany). All compounds were tested in duplicate or triplicate wells (technical replicates) and at least two independent experiments. Relative degradation was calculated by normalization to vehicle-treated control samples.

DYRK1A [2] = target: T2, DYRK1A (Homo sapiens, UniProt Q13627); assay: KdELECT kinase binding assay (Eurofins), DYRK1A; conditions: 11-point 3-fold dilution series, qPCR readout; read-out: Binding Affinity (Kd) DYRK1A
T2 construct: purchased Eurofins; host or cells: E. coli BL21-derived (T7 phage display) or HEK-293

DYRK1B [3] = target: T1, DYRK1B; assay: KdELECT kinase binding assay (Eurofins), DYRK1B; conditions: 11-point 3-fold dilution series, qPCR readout; read-out: Binding Affinity (Kd) DYRK1B
DYRK1A [4] = target: T2, DYRK1A; assay: HiBiT split luciferase assay of targeted degradation of DYRK1A in Flp-In T-REx 293 cells; assay type: cell-based; conditions: 300 nM compound, 24 h, HiBiT-tagged DYRK1A in Flp-In T-REx 293 cells, normalized to vehicle; read-out: Relative Degradation at 300 nM DYRK1A

Row | Structure (SMILES) | inhibition at 0.3 µM (DYRK1B [1]) | Kd (DYRK1A [2]) | Kd (DYRK1B [3]) | inhibition at 0.3 µM (DYRK1A [4])
1 | Cc1nc2ccc(-c3ccnc(N)c3)nc2n1-c1cc(F)c(N2CCN(CC#Cc3ccc(N4CCC(C(=O)N5CCC(n6cc(CNc7cccc8c7C(=O)N(C7CCC(=O)NC7=O)C8=O)cn6)CC5)CC4)nc3)CC2)c(F)c1 (stereo not shown) [Compound 23, 4-(((1-(1-(1-(5-(3-(4-(4-(5-(2-aminopyridin-4-yl)-2-methyl-3H-imidazo[4,5-b]pyridin-3-yl)-2,6-difluorophenyl)piperazin-1-yl)prop-1-yn-1-yl)pyridin-2-yl)piperidine-4-carbonyl)piperidin-4-yl)-1H-pyrazol-4-yl)methyl)amino)-2-(2,6-dioxopiperidin-3-yl)isoindoline-1,3-dione] | > 50% | < 10 nM | < 10 nM | > 60%
2 | Cc1nc2ccc(-c3ccnc(N)c3)nc2n1-c1ccc(N2CCN(CC#Cc3ccc(N4CCC(C(=O)N5CCC(n6cc(CNc7cccc8c7C(=O)N(C7CCC(=O)NC7=O)C8=O)cn6)CC5)CC4)nc3)CC2)c(C(F)(F)F)c1 (stereo not shown) [Compound 24, 4-(((1-(1-(1-(5-(3-(4-(4-(5-(2-aminopyridin-4-yl)-2-methyl-3H-imidazo[4,5-b]pyridin-3-yl)-2-(trifluoromethyl)phenyl)piperazin-1-yl)prop-1-yn-1-yl)pyridin-2-yl)piperidine-4-carbonyl)piperidin-4-yl)-1H-pyrazol-4-yl)methyl)amino)-2-(2,6-dioxopiperidin-3-yl)isoindoline-1,3-dione] | < 30% | 10 to 100 nM | 10 to 100 nM | > 60%
3 | Cc1nc2ccc(-c3ccnc(N)c3)nc2n1-c1ccc(CN2CCN(CC#Cc3ccc(N4CCC(C(=O)N5CCC(n6cc(CNc7cccc8c7C(=O)N(C7CCC(=O)NC7=O)C8=O)cn6)CC5)CC4)nc3)CC2)cc1 (stereo not shown) [Compound 25, 4-(((1-(1-(1-(5-(3-(4-(4-(5-(2-aminopyridin-4-yl)-2-methyl-3H-imidazo[4,5-b]pyridin-3-yl)benzyl)piperazin-1-yl)prop-1-yn-1-yl)pyridin-2-yl)piperidine-4-carbonyl)piperidin-4-yl)-1H-pyrazol-4-yl)methyl)amino)-2-(2,6-dioxopiperidin-3-yl)isoindoline-1,3-dione] | 30 to 50% | < 10 nM | < 10 nM | > 60%
4 | Cc1nc2ccc(-c3ccnc(N)c3)nc2n1-c1ccc(N2CCN(CC#Cc3cncc(N4CCC(C(=O)N5CCC(n6cc(CNc7cccc8c7C(=O)N(C7CCC(=O)NC7=O)C8=O)cn6)CC5)CC4)n3)CC2)c(F)c1 (stereo not shown) [Compound 32, 4-(((1-(1-(1-(6-(3-(4-(4-(5-(2-aminopyridin-4-yl)-2-methyl-3H-imidazo[4,5-b]pyridin-3-yl)-2-fluorophenyl)piperazin-1-yl)prop-1-yn-1-yl)pyrazin-2-yl)piperidine-4-carbonyl)piperidin-4-yl)-1H-pyrazol-4-yl)methyl)amino)-2-(2,6-dioxopiperidin-3-yl)isoindoline-1,3-dione] | > 50% | 10 to 100 nM | 10 to 100 nM | > 60%
